Measured values published in US20020013478A1, “Calanolide analogues and methods of their use” (Sarawak Medichem Pharmaceuticals,Inc., priority 1994, published 2002).

Tests used:
measles = test: Measles virus inhibition of viral CPE in BSC-1 cells; type: cell-based; settings: Table II footnote g
HBV = HBV replication in cultures of 2.2.15 cells, extracellular HBV virion DNA (primary assay); settings: read-out: HBV EC50; Table II
Description: Both intracellular and extracellular HBV DNA are analyzed in order to (i) allow for verification of compound efficacy and (ii) provide possible data on the target site in the HBV replication pathway for the compound from examination of the pattern of viral replicative forms. The culture medium is changed daily during the treatment period to (i) prevent the buildup of potentially toxic metabolites derived from test compounds and (ii) provide an analysis of HBV virion production during discrete 24-hour intervals which enables a quantitative comparison of any effect on virion production.
The analysis of HBV DNA is performed using blot hybridization techniques (Southern and slot blot) and [^32P]-labeled HBV-specific probes. HBV DNA levels are measured by comparison to known amounts of HBV DNA standards applied to every nitrocellulose membrane (gel or slot blot). An AMBIS beta scanner, which measures the radioactive decay of the hybridized probes directly from the nitrocellulose membranes, is used for the quantitative analysis. Standard curves, generated by multiple analyses, are used to correlate CPM measurements made by the beta scanner with relative levels of target HBV DNA. The levels of HBV virion DNA released into the culture medium are analyzed by a slot blot hybridization procedure.

HCMV = HCMV semi-automated CPE-inhibition assay in human foreskin fibroblast cells; type: cell-based, human cytomegalovirus; settings: Table II
[1] = system: Human lung carcinoma (A549) cells; test: Cytotoxicity run with the adenovirus assay; settings: read-out: Others IC50, against adenovirus type-1; Table II footnote h
[2] = system: human foreskin fibroblast cells; test: Cell viability in the CMV plaque reduction assay (MTC); type: cell-based
Source text: Five calanolide analogues, prepared as described above, were further evaluated for their anti-HCMV activity in plaque reduction assay against various laboratory and clinical isolates (Towne, AD 169, E. Mann, Coffinan, and C9208).

VZV = VZV plaque reduction assay in human foreskin fibroblast cells; type: cell-based, varicella zoster virus; settings: Table II
Description: Two days prior to use, HFF cells are plated into six-well plates and incubated at 37° C. with 5% CO2 and 90% humidity. On the date of assay, the drug is made up at twice the desired concentration in 2x MEM and then serially diluted 1:5 in 2x MEM using six concentrations of drug. The initial starting concentration is usually 200 gg/mL down to 0.06 μg/mL. The virus to be used is diluted in MEM containing 10% FBS to a desired concentration which will give 20-30 plaques per well. The media is then aspirated from the wells and 0.2 mL of virus is added to each well in duplicate with 0.2 mL of media being added to drug toxicity wells. The plates are then incubated for one hour with shaking every fifteen minutes. After the incubation period, an equal amount of 1% agarose was added to an equal volume of each drug dilution. This will give final drug concentrations beginning with 100 μg/mL and ending with 0.03 μg/mL and a final agarose overlay concentration of 0.5%. The drug agarose mixture is applied to each well in 2 mL volume and the plates then incubated for three days, after which the cells were stained with a 1.5% solution of neutral red. At the end of 4-6hr incubation period, the stain is aspirated, and plaques counted using a stereomicroscope at lOx magnification.
The procedure is essentially the same as for the HSV plaque assay described above with two exceptions:
1. After addition of the drug, the plates are incubated for ten days.
2. On days three and six, an additional 1 mL overlay with equal amounts of 2x MEM and 1% agarose are added.

[3] = system: human foreskin fibroblast cells; test: Toxicity run with the HCMV assay, human foreskin fibroblast cells; type: cell-based; settings: Table II
In short: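 Human foreskin fibroblasts exposed to drug at 37 °C in CO2, either 72 h followed by Coulter Counter counts (triplicate counts, three replicate wells), or seven days followed by dye staining for 1 h and optical density at 550 nm.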

[4] = system: human foreskin fibroblast cells; test: Toxicity run with the VZV assay, human foreskin fibroblast cells; type: cell-based; settings: Table II
Description: [table] […] The media from the wells is then aspirated and 2 mL of each drug concentration is then added to each well. The cells are then incubated in a CO2 incubator at 37° C. for 72 h. At the end of this time, the media-drug solution is removed and the cells washed. […] The cell-media mixture is then pipetted up and down vigorously to break up the cell suspension, and 0.2 mL of the mixture is added to 9.8 mL of Isoton III and counted using a Coulter Counter. Each sample is counted three times with three replicate wells per sample. The procedure for plating cells and adding drug is the same as for the MTT Assay. After drug addition, the plates are incubated for seven days in a CO2 incubator at 37° C. […] This is incubated in the CO2 incubator for one hour. The dye is aspirated and the cells are washed using a Nunc Plate Washer. […] The plates are rotated for 15 minutes and the optical densities are read at 550 nm on a plate reader.

[5] = system: HCMV isolates Towne, AD169, E. Mann, Coffman, C9208; test: Anti-CMV plaque reduction assay against various laboratory and clinical isolates (Example 40); type: cell-based, human cytomegalovirus
Description: On the date of assay, the drug is made up at twice the desired concentration in 2x MEM and then serially diluted 1:5 in 2x MEM using six concentrations of drug. The initial starting concentration is usually 200 gg/mL down to 0.06 μg/mL. […] The media is then aspirated from the wells and 0.2 mL of virus is added to each well in duplicate with 0.2 mL of media being added to drug toxicity wells. The plates are then incubated for one hour with shaking every fifteen minutes. […] This will give final drug concentrations beginning with 100 μg/mL and ending with 0.03 μg/mL and a final agarose overlay concentration of 0.5%. The drug agarose mixture is applied to each well in 2 mL volume and the plates then incubated for three days, after which the cells were stained with a 1.5% solution of neutral red. At the end of 4-6hr incubation period, the stain is aspirated, and plaques counted using a stereomicroscope at lOx magnification. The procedure again is nearly the same as for HSV with a few minor changes. […] The assay is incubated for 14 days with the additional 1 mL overlays being applied on days four and eight. The procedure for the liquid overlay plaque assay is similar to that using the agarose overlay. The procedure for adding the virus is the same as for the regular plaque assay. The drugs are made up in a concentration to be used in MEM with 2% FBS. The drugs are not made up at 2x concentration as in the previous assays but are made up at the desired concentration. For HSV-1 and HSV-2 assays, an antibody preparation obtained from Baxter Health Care Corporation is diluted 1:500 and added to the media that the drug is diluted in. For CMV and VZV, no antibody in the overlay is utilized. For the CMV assay, additional medium without new drug is added on day five and allowed to incubate for a total of 10 days. For VZV, additional medium is added on day five and incubated for a total of 10 days. At the end of the incubation period for all of the assays, 2 mL of 1:10 dilution of stock neutral is added to each well incubated for six hours. The liquid is then aspirated off and plaques enumerated using a stereomicroscope. Five calanolide analogues, prepared as described above, were further evaluated for their anti-HCMV activity in plaque reduction assay against various laboratory and clinical isolates (Towne, AD 169, E. Mann, Coffinan, and […]).

2.2.15 cells = test: Toxicity in 2.2.15 cells, neutral red dye uptake; type: cell-based, human; settings: Table II; read-out: HBV IC50
Description: Cells of 2.2.15 were grown to confluence in 96-well flat-bottomed tissue culture plates and treated with compounds (in 0.2 mL culture medium/well) as described above. Four concentrations of each compound were assayed, each in triplicate cultures, in 3- to 10-fold steps. Untreated control cultures were maintained on each 96-well plate. On each 96-well plate, wells containing no cells were used to correct for light scattering.

Raji or Daudi cells = test: Toxicity run with the EBV assay; type: cell-based, human; settings: Table II
Source text: IC50 (50% inhibitory concentration) is the concentration required to inhibit cell proliferation by 50%

influenza A(H1N1) = test: Influenza A inhibition of viral CPE in MDCK cells; type: cell-based, influenza A virus; settings: Table II footnote i; read-out: Others EC50, against influenza A(H1N1)
EBV = EBV assay: superinfection of Raji or Daudi cells with P3HR-1, immunofluorescence for EA and VCA; type: cell-based, Epstein-Barr virus; settings: Table II
In short: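 Raji cells (Burkitt's lymphoma, 60 EBV genomes/cell) or Daudi cells were superinfected with P3HR-1 EBV, and drugs were added after 45 min adsorption at 37 °C and washing. After 48 h, smears were stained with monoclonal antibodies to EA components and VCA plus fluorescein anti-mouse Ig. Fluorescence-positive cells were counted to give total EA- or VCA-positive cells per culture.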

[6] = system: Madin Darby canine kidney (MDCK) cells; test: Cytotoxicity run with the influenza assay; type: cell-based; settings: Table II footnote i; read-out: Others IC50, against influenza A(H1N1)
Description: Virus strains: A/Texas/36191 (H1N1) (Source: Center for Disease Control and Prevention [CDC]), A/Beijing/2/92 (H3N2) (Source: CDC), B/Panama/45/90 (Source: CDC), A/NWS/33 (H1N1) (Source: American Type Culture Collection [ATCC]). (All but A/NWS/33 are tested in the presence of trypsin). Cell lines: Madin Darby canine kidney (MDCK) cells.

For `CCCc1cc(=O)oc2c3c(c4c(c12)OC(C)(C)CC4)OC(C)C(C)C3O` (single isomer, unassigned; (-)) [(−)-23], the “Others EC50, against measles” value (measles) was 20^g μM, the EC50 (HBV) was 3.5 µM and the “HCMV EC50” value (HCMV) was greater than 4.0 µg/mL. For the same compound, the IC50 [1] was greater than 100 µM, the “MTC (minimum drug concentration that reduced cell viability by 25%)” value ([2]; isolate AD169) was 10 µM and the “MTC (minimum drug concentration that reduced cell viability by 25%)” value ([2]; isolate C9208) was 10 µM. For the same compound, the “MTC (minimum drug concentration that reduced cell viability by 25%)” value ([2]; isolate Coffman) was less than 100 µM, the “MTC (minimum drug concentration that reduced cell viability by 25%)” value ([2]; isolate E. Mann) was 10 µM and the “MTC (minimum drug concentration that reduced cell viability by 25%)” value ([2]; isolate Towne) was 10 µM. For the same compound, the “VZV EC50” value (VZV) was greater than 4.0 µg/mL, the “HCMV IC50” value [3] was 18.8 µg/mL and the “VZV IC50” value [4] was 16.0 µg/mL. It also gave an EC50 ([5]; isolate AD169) of 3.16 µM, an EC50 ([5]; isolate C9208) of 2.99 µM and an EC50 ([5]; isolate Coffman) of 3.16 µM. For the same compound, the EC50 ([5]; isolate E. Mann) was 3.16 µM, the EC50 ([5]; isolate Towne) was 3.16 µM and the IC50 (2.2.15 cells) was 340 µM.

`CC1Oc2c3c(c4c(-c5ccccc5)cc(=O)oc4c2C(O)C1C)OC(C)(C)C=C3` (single isomer, unassigned; (-)) [(−)-24] was tested, and the EC50 (HBV) was greater than 10 µM, the “HCMV EC50” value (HCMV) was greater than 4.0 µg/mL and the “EBV IC50” value (Raji or Daudi cells) was greater than 50 µg/mL. The EC50 (influenza A(H1N1)) was 57 µM, the “EBV EC50” value (EBV) was greater than 50 µg/mL and the “VZV EC50” value (VZV) was greater than 4.0 µg/mL. For the same compound, the “HCMV IC50” value [3] was 14.4 µg/mL, the “VZV IC50” value [4] was 12.0 µg/mL and the IC50 (2.2.15 cells) was 151 µM. For the same compound, the IC50 [6] was greater than 100 µM.
